Columns and labels:
Type in all cases: in vivo
Diabrotica balteata = Diabrotica balteata (corn root worm) maize sprout spray test; settings: 96 h, spray on maize sprouts, L2 larvae, 4 days after infestation, read-out: effect in at least one of the two categories (mortality or growth inhibition)
Description: Maize sprouts placed onto an agar layer in 24-well microtiter plates were treated with aqueous test solutions prepared from 10′000 ppm DMSO stock solutions by spraying. After drying, the plates were infested with L2 larvae (6 to 10 per well). The samples were assessed for mortality and growth inhibition in comparison to untreated samples 4 days after infestation.

Euschistus heros = Euschistus heros (neotropical brown stink bug) soybean leaf spray test; settings: 120 h, spray on soybean leaves, N2 nymphs, 5 days after infestation, read-out: effect in at least one of the two categories (mortality or growth inhibition)
Description: Soybean leaves on agar in 24-well microtiter plates were sprayed with aqueous test solutions prepared from 10′000 ppm DMSO stock solutions. After drying the leaves were infested with N2 nymphs. The samples were assessed for mortality and growth inhibition in comparison to untreated samples 5 days after infestation.

Plutella xylostella [1] = assay: Plutella xylostella (diamond back moth) artificial diet test, L2 larvae; settings: 120 h, 5 days after infestation, read-out: effect in at least one of the two categories (mortality or growth inhibition)
Description: 24-well microtiter plates with artificial diet were treated with aqueous test solutions prepared from 10′000 ppm DMSO stock solutions by pipetting. After drying, the plates were infested with L2 larvae (10 to 15 per well). The samples were assessed for mortality and growth inhibition in comparison to untreated samples 5 days after infestation.

Myzus persicae = Myzus persicae (green peach aphid) feeding/contact activity; settings: foliar, 144 h, spray on sunflower leaf discs, mixed ages, 6 days after infestation
Description: Sunflower leaf discs were placed onto agar in a 24-well microtiter plate and sprayed with aqueous test solutions prepared from 10′000 ppm DMSO stock solutions. After drying, the leaf discs were infested with an aphid population of mixed ages. The samples were assessed for mortality 6 days after infestation.

Spodoptera littoralis = Spodoptera littoralis (Egyptian cotton leaf worm) cotton leaf disc test; settings: foliar, 72 h, spray on cotton leaf discs, L1 larvae, 3 days after infestation, read-out: control (mortality, anti-feeding effect or growth inhibition)
Description: Cotton leaf discs were placed onto agar in 24-well microtiter plates and sprayed with aqueous test solutions prepared from 10′000 ppm DMSO stock solutions. After drying the leaf discs were infested with five L1 larvae. The samples were assessed for mortality, anti-feeding effect, and growth inhibition in comparison to untreated samples 3 days after infestation. Control of Spodoptera littoralis by a test sample is given when at least one of the categories mortality, anti-feedant effect, and growth inhibition is higher than the untreated sample.

Tetranychus urticae = Tetranychus urticae (two-spotted spider mite) feeding/contact activity; settings: foliar, 192 h, spray on bean leaf discs, mixed population (mobile stages), 8 days after infestation
Description: Bean leaf discs on agar in 24-well microtiter plates were sprayed with aqueous test solutions prepared from 10′000 ppm DMSO stock solutions. After drying the leaf discs were infested with a mite population of mixed ages. The samples were assessed for mortality on mixed population (mobile stages) 8 days after infestation.

Thrips tabaci = Thrips tabaci (onion thrips) feeding/contact activity; settings: foliar, 144 h, spray on sunflower leaf discs, mixed ages, 6 days after infestation
Description: Sunflower leaf discs were placed on agar in 24-well microtiter plates and sprayed with aqueous test solutions prepared from 10′000 ppm DMSO stock solutions. After drying the leaf discs were infested with a thrips population of mixed ages. The samples were assessed for mortality 6 days after infestation.

Plutella xylostella [2] = assay: Plutella xylostella (diamond back moth) artificial diet test, eggs; settings: 192 h, 8 days after infestation, read-out: effect in at least one of the two categories (mortality or growth inhibition)
Description: 24-well microtiter plates with artificial diet were treated with aqueous test solutions prepared from 10′000 ppm DMSO stock solutions by pipetting. After drying, Plutella eggs were pipetted through a plastic stencil onto a gel blotting paper and the plate was closed with it. The samples were assessed for mortality and growth inhibition in comparison to untreated samples 8 days after infestation.

Cc1cc(C2=NO[C@@](c3cc(Cl)c(F)c(Cl)c3)(C(F)(F)F)C2)ccc1C(=O)N(C(=O)C1CC1)[C@H]1CON(S(=O)(=O)C(F)F)C1 [Compound A1, N-(cyclopropanecarbonyl)-4-[(5S)-5-(3,5-dichloro-4-fluoro-phenyl)-5-(trifluoromethyl)-4H-isoxazol-3-yl]-N-[(4R)-2-(difluoromethylsulfonyl)isoxazolidin-4-yl]-2-methyl-benzamide]
≥ 80%: percent effect (mortality or growth inhibition) at 200 ppm (Diabrotica balteata) | percent effect (mortality or growth inhibition) at 200 ppm (Euschistus heros) | percent effect (mortality or growth inhibition) at 200 ppm (Plutella xylostella [1]) | mortality at 200 ppm (Myzus persicae) | percent control (mortality, anti-feedant effect or growth inhibition) at 200 ppm (Spodoptera littoralis) | mortality at 200 ppm (Tetranychus urticae) | mortality at 200 ppm (Thrips tabaci)

Cc1cc(C2=NO[C@@](c3cc(Cl)c(F)c(Cl)c3)(C(F)(F)F)C2)ccc1C(=O)N(COC1CC1)[C@H]1CON(S(=O)(=O)C(F)F)C1 [Compound A2, N-(cyclopropoxymethyl)-4-[(5S)-5-(3,5-dichloro-4-fluoro-phenyl)-5-(trifluoromethyl)-4H-isoxazol-3-yl]-N-[(4R)-2-(difluoromethylsulfonyl)isoxazolidin-4-yl]-2-methyl-benzamide]
≥ 80%: percent effect (mortality or growth inhibition) at 200 ppm (Euschistus heros) | percent effect (mortality or growth inhibition) at 200 ppm (Plutella xylostella [2]) | percent control (mortality, anti-feedant effect or growth inhibition) at 200 ppm (Spodoptera littoralis)
